For data set [1], the system named is Mus musculus. The data set can be described thus: Antiinflammatory activity against C57BL/6 mouse model of DSS induced ulcerative colitis assessed as reversal of splenomegaly at 20 mg/kg, po administered daily for 10 days. The note with it: time 10.0 day. The class given is functional, organism-based.
Data set [2] is described as follows: Acute toxicity in ICR mouse assessed as pathological changes in lung at 500 mg/kg, po measured daily for 10 days by H and E staining based analysis. The class given is organism-based. The note with it: in vivo, 240 h, time 10 day.
The subject of data set [3] is Mus musculus. In words: Antiinflammatory activity against C57BL/6 mouse model of DSS induced ulcerative colitis assessed as reversal of shortened intestinal length due to fecal obstruction at 20 mg/kg, po administered daily for 10 days. Conditions: time 10.0 day. It counts as functional, organism-based.
Data set [4] relates to J774.A1. In words: Inhibition of MAPK signaling pathway in LPS-stimulated mouse J774.A1 cells assessed as reduction in JNK phosphorylation at 10 uM pretreated for 2 hrs followed by LPS stimulation and measured after 30 mins by Western blot analysis. It counts as cell-based. Conditions: time 2.5 hrs.
Data set [5] relates to RAW264.7. The data set can be described thus: Antiinflammatory activity against LPS-induced mouse RAW264.7 cells assessed as inhibition of IL-6 release pretreated for 30 mins followed by LPS stimulation and measured after 24 hrs by ELISA. The class given is functional, cell-based.
Data set [6] concerns J774.A1. The data set can be described thus: Inhibition of MAPK signaling pathway in LPS-stimulated mouse J774.A1 cells assessed as reduction in ERK1/2 phosphorylation at 10 uM pretreated for 2 hrs followed by LPS stimulation and measured after 30 mins by Western blot analysis. The class given is cell-based. The note with it: time 2.5 hrs. On the technique in general: In western blotting, separated proteins are transferred to a membrane and probed.

In data set [7] the test system is Mus musculus. In words: Antiinflammatory activity against C57BL/6 mouse model of LPS induced acute lung injury assessed as reduction in IL-6 level in lung at 20 mg/kg, po administered every 12 hrs for 3 times followed by LPS stimulation for 6 hrs starting from 30 mins post last dose by immunohistochemical staining based analysis. The class given is functional, organism-based. Conditions: time 42.5 hrs.

For data set [8], the system named is Mus musculus. The data set can be described thus: Antiinflammatory activity against C57BL/6 mouse model of LPS induced acute lung injury assessed as reduction in IL-6 level in serum at 20 mg/kg, po administered every 12 hrs for 3 times followed by LPS stimulation for 6 hrs starting from 30 mins post last dose by ELISA. The class given is functional, organism-based. Conditions: time 42.5 hrs.

Data set [9] concerns RAW264.7. The data set can be described thus: Antiinflammatory activity against LPS-induced mouse RAW264.7 cells assessed as inhibition of TNF-alpha release pretreated for 30 mins followed by LPS stimulation and measured after 24 hrs by ELISA. The class given is functional, cell-based. (An ELISA detects its analyte on a solid surface through an enzyme-linked reagent.)
The test system of data set [10] is J774.A1. In words: Cytotoxicity against mouse J774.A1 cells assessed as reduction in cell proliferation at 10 uM measured after 24 hrs by CCK-8 assay. Conditions: j774.a1, 24 h. It counts as toxicity, cell-based. (Formazan colour is commonly taken as a measure of viable cells.)
Data set [11] in a line: Acute toxicity in ICR mouse assessed as effect on daily activities at 500 mg/kg, po measured daily for 10 days. It counts as organism-based. Conditions: in vivo, 240 h, time 10 day.
The subject of data set [12] is RAW264.7. In words: Potency index, ratio of osthole IC50 to test compound IC50 for antiinflammatory activity against LPS-induced mouse RAW264.7 cells assessed as inhibition of TNF-alpha release pretreated for 30 mins followed by LPS stimulation and measured after 24 hrs by ELISA. Conditions: time 24.5 hrs. It counts as functional.
Data set [13] in a line: Acute toxicity in ICR mouse assessed as effect on physiological status at 500 mg/kg, po measured daily for 10 days. It counts as organism-based. The note with it: in vivo, 240 h, time 10 day.
Data set [14] in a line: Aqueous solubility of compound in phosphate buffer at pH 7.4 measured after 24 hrs by HPLC analysis. It counts as physicochemical.
Data set [15] concerns J774.A1. In words: Inhibition of MAPK signaling pathway in LPS-stimulated mouse J774.A1 cells assessed as reduction in p38 phosphorylation at 10 uM pretreated for 2 hrs followed by LPS stimulation and measured after 30 mins by Western blot analysis. It counts as cell-based. Conditions: time 2.5 hrs.
Data set [16] has as its system Mus musculus. In words: Antiinflammatory activity against C57BL/6 mouse model of LPS induced acute lung injury assessed as reduction in interstitial edema at 20 mg/kg, po administered every 12 hrs for 3 times followed by LPS stimulation for 6 hrs starting from 30 mins post last dose by H and E staining based analysis. The class given is functional, organism-based. The note with it: time 42.5 hrs.

Data set [17] has as its system J774.A1. In words: Antiinflammatory activity against LPS-induced mouse J774.A1 cells assessed as inhibition of TNF-alpha release pretreated for 30 mins followed by LPS stimulation and measured after 24 hrs by ELISA. It counts as functional, cell-based.

From ChEMBL document CHEMBL5505996, “Discovery of novel osthole derivatives exerting anti-inflammatory effect on DSS-induced ulcerative colitis and LPS-induced acute lung injury in mice” (Eur J Med Chem, 2024) come the findings set out here.

Converted amounts (≈) assume the structure as drawn. The source made the active and inactive calls. The rule behind the calls is not given here.

Consider `CC(C)=CCc1c(OCCCCNCCN2CCOCC2)ccc2ccc(=O)oc12`, for which the outcome in the data set on Mus musculus [1], with Mus musculus [3], in the data set with Mus musculus [7], in the data set on Mus musculus [8] and with Mus musculus [16] was Active. Moreover, the Activity result (in data set [2]; with J774.A1 [10]; in [11]; in data set [13]) was “Non-Toxic” each time. The inhibition entry in the data set on J774.A1 [4] and with J774.A1 [15] was “Active” in each case. The values for the IC50 in the data set with RAW264.7 [5], in the data set with RAW264.7 [9] and in the data set on J774.A1 [17] were 4.57 µM, 29.7 µM and 18.1 µM, respectively. In the data set on J774.A1 [6], the inhibition entry is “inactive”. For the same molecule, in the data set on RAW264.7 [12], the “Ratio IC50” value worked out at 3.8. Also, in data set [14], the solubility (in general, how much of the substance goes into solution per volume) at 24 h was 340 µg/mL (≈ 820 µM).
